Results taken from patent publication US12162858B2, “Quinoline derivatives as inhibitors of AXL/MER RTK and CSF1R” (QURIENT CO., LTD., priority 2018, dated 2024).

target: T1, Mer (Homo sapiens, UniProt Q12866); test: LanthaScreen Eu kinase binding assay for Mer; details: read-out: Mer kinase binding activity (Kd)
T1 construct: purchased Life Technologies
T1 sequence (Q12866 21-999): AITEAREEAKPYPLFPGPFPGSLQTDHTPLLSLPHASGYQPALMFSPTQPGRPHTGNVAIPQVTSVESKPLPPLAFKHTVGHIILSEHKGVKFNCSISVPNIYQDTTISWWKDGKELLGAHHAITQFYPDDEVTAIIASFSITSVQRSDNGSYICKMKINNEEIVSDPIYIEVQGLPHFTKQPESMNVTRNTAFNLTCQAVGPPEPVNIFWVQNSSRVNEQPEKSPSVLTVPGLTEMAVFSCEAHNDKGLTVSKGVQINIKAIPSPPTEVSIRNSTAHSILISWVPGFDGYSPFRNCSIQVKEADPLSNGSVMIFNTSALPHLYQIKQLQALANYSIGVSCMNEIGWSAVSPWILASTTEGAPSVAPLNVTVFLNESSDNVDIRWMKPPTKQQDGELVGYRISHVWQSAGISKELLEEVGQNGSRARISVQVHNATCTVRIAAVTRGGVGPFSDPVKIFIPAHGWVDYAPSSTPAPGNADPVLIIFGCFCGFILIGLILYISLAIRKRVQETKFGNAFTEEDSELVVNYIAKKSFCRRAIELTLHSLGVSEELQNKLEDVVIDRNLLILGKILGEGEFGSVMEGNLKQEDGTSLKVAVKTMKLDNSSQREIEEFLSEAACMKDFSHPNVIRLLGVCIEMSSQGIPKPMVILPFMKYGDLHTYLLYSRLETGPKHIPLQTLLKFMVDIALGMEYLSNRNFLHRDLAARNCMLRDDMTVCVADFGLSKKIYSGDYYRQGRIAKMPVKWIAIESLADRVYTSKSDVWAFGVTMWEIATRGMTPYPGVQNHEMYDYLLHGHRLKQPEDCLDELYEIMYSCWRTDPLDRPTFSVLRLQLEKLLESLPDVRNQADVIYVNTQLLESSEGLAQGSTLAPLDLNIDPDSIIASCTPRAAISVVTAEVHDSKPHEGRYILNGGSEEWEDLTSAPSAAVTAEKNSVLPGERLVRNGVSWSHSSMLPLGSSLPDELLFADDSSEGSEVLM
Experimental: LanthaScreen® Eu Kinase Binding assays were conducted at Life Technologies using the manufacturer's specifications for each kinase indicated.
Briefly, the principle behind this assay is based upon the binding and displacement of an Alexa Fluor 647-labeled tracer to the kinase of interest. Binding of the tracer to the kinase is detected using an EU-labeled anti-tag antibody. Simultaneous binding of both the tracer and antibody to the kinase gives rise to a FRET-signal. Binding of an inhibitor to the kinase competes for binding with the tracer, resulting in a loss of FRET-signal.
A given compound was diluted in DMSO to make a stock compound solution. The stock compound solution was serially diluted over eight steps in DMSO. Each diluted compound solution in DMSO was diluted in kinase buffer. Afterwards four kinds of working solution were prepared. First, Tracer-Working solution consists of Tracer 236 and Kinase Buffer. Second, Axl, Mer, Tyro3 or Met/anti-GST-AB-Working solution contained one of the kinases Axl, and Mer or anti-GST-AB (=anti glutathione-S-transferase antibody) in Kinase Buffer. Third, anti-GST-AB-Working solution was made with anti-GST-AB and Kinase Buffer. Last, in the DMSO-Working solution DMSO was added to Kinase Buffer to a final concentration to 3%. Each of the four kinds of working solutions were separately added to the assay plate and then incubated for 1 h at room temperature. After incubation, the assay plate was measured with respect to the FRET-Signal with the EnVision (Perkin Elmer) using the program LanthaHTRF-Assay. Data evaluation was done in the Quattro Workflow software. Kd (the equilibrium dissociation constant) values were calculated relative to vehicle (DMSO) control wells.

Structure (SMILES)	Kd [nM]
CCn1nc(C(=O)Nc2ccc(Oc3ccnc4cc(OC)c(OC)cc34)cn2)c(OCC(F)(F)F)c1C [Compound 1]	< 100
COc1cc2nccc(Oc3ccc(NC(=O)c4nn(C(C)C)c(C)c4OCC(F)(F)F)nc3)c2cc1OC [Compound 2]	< 100
COc1cc2nccc(Oc3ccc(NC(=O)c4nn(C5CC5)c(C(C)=O)c4OCC(F)(F)F)nc3)c2cc1OC [Compound 3]	< 100
CCCn1cc(OCCF)c(C(=O)Nc2ccc(Oc3ccnc4cc(OC)c(OC)cc34)cn2)n1 [Compound 14]	< 100
COc1cc2nccc(Oc3ccc(NC(=O)c4nn(CC(C)=O)cc4OCC(F)(F)F)nc3)c2cc1OC [Compound 19]	< 100
CCC(=O)n1cc(OCC(F)(F)F)c(C(=O)Nc2ccc(Oc3ccnc4cc(OC)c(OC)cc34)cn2)n1 [Compound 20]	< 100
COc1cc2nccc(Oc3ccc(NC(=O)c4nn(CC(C)C)cc4OCC(F)(F)F)nc3)c2cc1OC [Compound 21]	< 100
CCCn1cc(NCC(F)(F)F)c(C(=O)Nc2ccc(Oc3ccnc4cc(OC)c(OC)cc34)cn2)n1 [Compound 23]	< 100
CCCn1cc(OCC(F)(F)F)c(C(=O)Nc2ccc(Oc3ccnc4cc(OC)c(OC)cc34)c(F)c2)n1 [Compound 25]	< 100
CCCn1cc(OCC(F)(F)F)c(C(=O)Nc2ccc(Oc3ccnc4cc(OC)c(OC)cc34)c(C)c2)n1 [Compound 26]	< 100
CCCn1cc(OCC(F)(F)F)c(C(=O)Nc2ccc(Oc3ccnc4cc(OC)c(OC)cc34)cc2C)n1 [Compound 27]	< 100
CCCn1cc(OCCC(F)(F)F)c(C(=O)Nc2ccc(Oc3ccnc4cc(OC)c(OC)cc34)cn2)n1 [Compound 31]	< 100
CCCn1cc(OCC(F)(F)F)c(C(=O)Nc2ccc(Oc3ccnc4cc(OC)c(OC)cc34)nn2)n1 [Compound 32]	< 100
CCCn1cc(N(C)CC2CCOCC2)c(C(=O)Nc2ccc(Oc3ccnc4cc(OC)c(OC)cc34)cn2)n1 [Compound 34]	100 to 500
CCCCn1cc(OCC(F)(F)F)c(C(=O)Nc2ccc(Oc3ccnc4cc(OC)c(OC)cc34)cn2)n1 [Compound 36]	< 100
COc1cc2nccc(Oc3ccc(NC(=O)c4nn(CCC#N)cc4OCC(F)(F)F)nc3)c2cc1OC [Compound 39]	< 100
COc1cc2nccc(Oc3ccc(NC(=O)c4nn(CC(C)C)cc4OCC(F)(F)F)c(F)c3)c2cc1OC [Compound 48]	< 100
COCCn1cc(OCC(F)(F)F)c(C(=O)Nc2ccc(Oc3ccnc4cc(OC)c(OC)cc34)cc2F)n1 [Compound 49]	< 100
COc1cc2nccc(Oc3ccc(NC(=O)c4nn(CC(C)C)cc4OCC(F)(F)F)cc3F)c2cc1OC [Compound 53]	< 100
COCCn1cc(OCC(F)(F)F)c(C(=O)Nc2ccc(Oc3ccnc4cc(OC)c(OC)cc34)c(F)c2)n1 [Compound 54]	< 100
COc1cc2nccc(Oc3ccc(NC(=O)c4nn(CC(C)C)cc4OCC(F)(F)F)cc3C)c2cc1OC [Compound 58]	< 100
COc1cc2nccc(Oc3ccc(NC(=O)c4nn(CC(C)(F)F)cc4OCC(F)(F)F)nc3)c2cc1OC [Compound 64]	< 100
COc1cc2nccc(Oc3ccc(NC(=O)c4nn(CCCN)cc4OCC(F)(F)F)nc3)c2cc1OC [Compound 68]	< 100

The remaining lines, values ahead:

Kd [nM]	Structure (SMILES)
< 100	COc1cc2nccc(Oc3ccc(NC(=O)c4nn(C5CCOC5)cc4OCC(F)(F)F)nc3)c2cc1OC (stereo not shown) [Compound 13]
< 100	COc1cc2nccc(Oc3ccc(NC(=O)c4nn(C(C)(C)C)cc4OCC(F)(F)F)nc3)c2cc1OC [Compound 22]
< 100	COc1cc2nccc(Oc3ccc(NC(=O)c4nn(C5CCC5)cc4OCC(F)(F)F)nc3)c2cc1OC [Compound 24]
< 100	CCCn1cc(OCC(F)(F)F)c(C(=O)Nc2ccc(Oc3ccnc4cc(OC)c(OC)cc34)cc2F)n1 [Compound 28]
< 100	COc1cc2nccc(Oc3ccc(NC(=O)c4nn(C)cc4OCC(F)(F)F)nc3)c2cc1OC [Compound 33]
< 100	COc1cc2nccc(Oc3ccc(NC(=O)c4nn(C)cc4OCC(F)(F)F)cc3C)c2cc1OC [Compound 37]
< 100	CCCn1cc(OCC(F)(F)F)c(C(=O)Nc2ccc(Oc3ccnc4cc(OC)c(OC)cc34)cc2)n1 [Compound 38]
< 100	COc1cc2nccc(Oc3ccc(NC(=O)c4nn(C5CCCC5)cc4OCC(F)(F)F)nc3)c2cc1OC [Compound 40]
< 100	COc1cc2nccc(Oc3ccc(NC(=O)c4nn(CC5CC5)cc4OCC(F)(F)F)nc3)c2cc1OC [Compound 41]
< 100	COc1cc2nccc(Oc3ccc(NC(=O)c4nn(CC5CCC5)cc4OCC(F)(F)F)nc3)c2cc1OC [Compound 42]
< 100	COc1cc2nccc(Oc3ccc(NC(=O)c4nn(CC5CCCCC5)cc4OCC(F)(F)F)nc3)c2cc1OC [Compound 43]
< 100	COc1cc2nccc(Oc3ccc(NC(=O)c4nn(CC5CCOC5)cc4OCC(F)(F)F)nc3)c2cc1OC (stereo not shown) [Compound 44]
< 100	COc1cc2nccc(Oc3ccc(NC(=O)c4nn(C)cc4OCC(F)(F)F)c(F)c3)c2cc1OC [Compound 45]
< 100	COc1cc2nccc(Oc3ccc(NC(=O)c4nn(CCO)cc4OCC(F)(F)F)c(F)c3)c2cc1OC [Compound 46]
< 100	COc1cc2nccc(Oc3ccc(NC(=O)c4nn(C5CCCC5)cc4OCC(F)(F)F)c(F)c3)c2cc1OC [Compound 47]
< 100	COc1cc2nccc(Oc3ccc(NC(=O)c4nn(C)cc4OCC(F)(F)F)cc3F)c2cc1OC [Compound 50]

Kd [nM]	Structure (SMILES)
< 100	COc1cc2nccc(Oc3ccc(NC(=O)c4nn(CCO)cc4OCC(F)(F)F)cc3F)c2cc1OC [Compound 51]
< 100	COc1cc2nccc(Oc3ccc(NC(=O)c4nn(C5CCCC5)cc4OCC(F)(F)F)cc3F)c2cc1OC [Compound 52]
< 100	COc1cc2nccc(Oc3ccc(NC(=O)c4nn(C5CCOC5)cc4OCC(F)(F)F)cc3F)c2cc1OC (stereo not shown) [Compound 55]
< 100	COc1cc2nccc(Oc3ccc(NC(=O)c4nn(CCO)cc4OCC(F)(F)F)cc3C)c2cc1OC [Compound 56]
< 100	COc1cc2nccc(Oc3ccc(NC(=O)c4nn(C5CCCC5)cc4OCC(F)(F)F)cc3C)c2cc1OC [Compound 57]
< 100	COc1cc2nccc(Oc3ccc(NC(=O)c4nn(CCO)cc4OCC(F)(F)F)cc3)c2cc1OC [Compound 59]
< 100	COc1cc2nccc(Oc3ccc(NC(=O)c4nn(C5CCCC5)cc4OCC(F)(F)F)cc3)c2cc1OC [Compound 60]
< 100	COCCn1cc(OCC(F)(F)F)c(C(=O)Nc2ccc(Oc3ccnc4cc(OC)c(OC)cc34)cc2)n1 [Compound 61]
< 100	COc1cc2nccc(Oc3ccc(NC(=O)c4nn(C5CCOC5)cc4OCC(F)(F)F)cc3)c2cc1OC (stereo not shown) [Compound 62]
< 100	COc1cc2nccc(Oc3ccc(NC(=O)c4nn(CC(C)N)cc4OCC(F)(F)F)nc3)c2cc1OC (stereo not shown) [Compound 63]
< 100	COc1cc2nccc(Oc3ccc(NC(=O)c4nn(CCOC5CCC5)cc4OCC(F)(F)F)nc3)c2cc1OC [Compound 65]
< 100	COc1cc2nccc(Oc3ccc(NC(=O)c4nn(C5COC5)cc4OCC(F)(F)F)nc3)c2cc1OC [Compound 66]
< 100	COc1cc2nccc(Oc3ccc(NC(=O)c4nn(CCO)cc4OCC(F)(F)F)nc3)c2cc1OC [Compound 67]
< 100	COc1cc2nccc(Oc3ccc(NC(=O)c4nn(C5CCCCC5)cc4OCC(F)(F)F)nc3)c2cc1OC [Compound 69]
< 100	COc1cc2nccc(Oc3ccc(NC(=O)c4nn(C5CCNC5)cc4OCC(F)(F)F)nc3)c2cc1OC (stereo not shown) [Compound 70]
< 100	COc1cc2nccc(Oc3ccc(NC(=O)c4nn(CC5CCCC5)cc4OCC(F)(F)F)nc3)c2cc1OC [Compound 71]
